Blank lines part the entries; values can stand above or below the compound they belong to.
Biological target: SGLT2 (Homo sapiens (Human), UniProt P31639)
Experiment: In vitro SGLT2 inhibitory activity: 1-NBDG uptake by CHO-SGLT2 cells
Type: cell-based
Conditions: for IC50: CHO-SGLT2 cells, 1-NBDG uptake, read-out: IC50 inhibiting SGLT2
Description: The effect of the compounds on SGLT2-mediated glucose uptake was investigated by establishing an SGLT2 overexpression cell model and using the fluorescent glucose (2-deoxy-1-[(7-nitro-2,1,3-benzoxadiazol-4-yl)amino]-D-glucose, 1-NBDG) tracer method to screen out candidate compounds with SGLT2 inhibitory activity.
The humanized SGLT2 overexpression cells (CHO-SGLT2) constructed from Chinese hamster ovary (CHO) cells were cultured in 1640 medium (Gibco) containing 10% fetal bovine serum (Gibco, 10270), subcultured at a ratio of 1:3, and replaced with new culture medium 3 times every week. Fluorescence detection cell culture plates and other culture flasks were purchased from Corning Company. […] Appropriate amounts of all compounds were weighed, prepared into 100 mM stock solutions with DMSO, and stored at 4° C. in the dark.
Before the 1-NBDG uptake test, CHO-SGLT2 cells were digested and seeded in a 96-well cell culture plate with a cell number of 40,000/well. After the cells were cultured for 48 h, the medium was discarded, and 100 μl of choline buffer was added to each well. After the cells were starved at 37° C. for 30 min, the choline buffer was discarded and 100 μl of the newly prepared Na^+ sodium buffer containing […] 1-NBDG and the test compounds (Compound) was added. The solvent DMSO was used as the negative control (Control) for the test compounds.
The Na^+ sodium buffer without 1-NBDG was used as the blank control (Blank). After 1 h of culture, the incubation solution was discarded. The cells were washed with choline buffer solution 3 times, and then 50 μl of neutral lysate was added to each well to lyse the cells on ice for 10 min. The fluorescence value of each well was detected using a multi-functional microplate reader at […].
At least 3 experimental replicates were set for each compound at indicated concentrations, and the data were expressed as mean±SEM. Uptake amount of 1-NBDG by cells=fluorescence value1-NBDG-fluorescence valueBlank. Inhibition rate on uptake amount of SGLT2 glucose (%)=(uptake amountcontrol−uptake amountcompound)/uptake amountcontrol×100%. Concentration-inhibition rate curves were plotted using Graphpad Prism software, and IC50 values were calculated accordingly.

Chain of SGLT2 (P31639 whole entry): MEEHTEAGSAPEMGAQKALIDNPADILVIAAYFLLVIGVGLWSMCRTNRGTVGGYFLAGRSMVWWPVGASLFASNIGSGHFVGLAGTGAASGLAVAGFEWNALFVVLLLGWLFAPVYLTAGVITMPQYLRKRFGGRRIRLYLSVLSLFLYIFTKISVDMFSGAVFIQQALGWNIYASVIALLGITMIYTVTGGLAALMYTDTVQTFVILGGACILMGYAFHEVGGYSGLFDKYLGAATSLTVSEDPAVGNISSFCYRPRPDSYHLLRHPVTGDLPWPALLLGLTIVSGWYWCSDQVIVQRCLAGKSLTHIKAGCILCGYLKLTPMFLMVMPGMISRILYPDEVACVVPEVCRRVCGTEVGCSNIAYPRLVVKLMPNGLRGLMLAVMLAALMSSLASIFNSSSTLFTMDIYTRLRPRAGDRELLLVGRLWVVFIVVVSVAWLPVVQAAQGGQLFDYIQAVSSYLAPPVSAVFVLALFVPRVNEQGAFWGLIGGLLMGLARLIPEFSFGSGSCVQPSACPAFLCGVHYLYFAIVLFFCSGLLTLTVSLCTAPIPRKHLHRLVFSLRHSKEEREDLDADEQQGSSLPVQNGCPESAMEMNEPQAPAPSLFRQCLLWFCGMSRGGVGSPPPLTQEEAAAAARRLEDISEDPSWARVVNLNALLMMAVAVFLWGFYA

IC50: 0.356 nM
SMILES: CS[C@H]1O[C@@H](c2ccc(C)c(Cc3ccc4c(c3)CCCO4)c2)[C@H](O)[C@@H](O)[C@@H]1O [Compound 8]

IC50: 2.26 nM
SMILES: CS[C@H]1O[C@@H](c2cc3c(c(Cc4ccc5c(c4)OCCO5)c2)CCC3)[C@H](O)[C@@H](O)[C@@H]1O [Compound 5]

IC50: 1.01 nM
SMILES: CS[C@H]1O[C@@H](c2ccc(C)c(Cc3ccc4c(c3)CC4)c2)[C@H](O)[C@@H](O)[C@@H]1O [Compound 12]

IC50: 3.32 nM
SMILES: OC[C@H]1O[C@@H](c2ccc(F)c(Cc3ccc4c(c3)OCCO4)c2)[C@H](O)[C@@H](O)[C@@H]1O [Compound 27]

SMILES: CCOc1ccc(Oc2cc([C@H]3O[C@H](CO)[C@@H](O)[C@H](O)[C@H]3O)ccc2Cl)cc1 [Compound 3, (2R,3R,4R,5S,6R)-2-[4-chloro-3-(4-ethoxyphenoxy)phenyl]-6-(hydroxymethyl)oxane-3,4,5-triol]
IC50: 6.75 nM
Inhibition rate of compounds on SGLT2 (%) (compound concentration 1 × 10^−5 mol/L): 96.4 ± 8.4%
Inhibition rate of compounds on SGLT2 (%) (compound concentration 5 × 10^−7 mol/L): 78.7 ± 1.9%
Inhibition rate of compounds on SGLT2 (%) (compound concentration 5 × 10^−8 mol/L): 71.7 ± 1.7%
Inhibition rate of compounds on SGLT2 (%) (compound concentration 5 × 10^−9 mol/L): 42.8 ± 2.3%
Inhibition rate of compounds on SGLT2 (%) (compound concentration 5 × 10^−10 mol/L): 8.7 ± 2.1%
Inhibition rate of compounds on SGLT2 (%) (compound concentration 5 × 10^−11 mol/L): 3.7 ± 4.2%
